# In patent US8815842B2 (priority 2006, dated 2014):
# Read-outs that look alike come from different tables or passages of the source.
# How the values were obtained:
# [1] = black-haired Japanese cattle, bovine, in vivo, po, 100 mg/kg
# Vero cells = assay: cells; assay type: cell-based; conditions: Chlorocebus sabaeus, 96 h, read-out: 50% cell growth inhibitory concentration (IC50)
# [2] = pig, in vivo, po, 100 mg/kg
# [3] = test system: foot-and-mouth disease virus serotype Asia 1; assay type: cell-based
# [4] = test system: foot-and-mouth disease virus (O/JPN/2000 strain); assay: microbe, parasite or virus in culture; assay type: cell-based; conditions: in Sus scrofa, 72 h, read-out: plaque formation 50% inhibitory rate (IC50)
# [5] = Corriedale, sheep, in vivo, po, 100 mg/kg
# [6] = test system: foot-and-mouth disease virus serotype A; assay type: cell-based
# [7] = test system: foot-and-mouth disease virus serotype C; assay type: cell-based
# [8] = test system: foot-and-mouth disease virus; conditions: pig, in vivo
smiles,measurement,setting,value
"NC(=O)c1nccnc1O [T-1105, 3-oxo-3,4-dihydro-2-pyrazinecarboxamide]",Plasma concentration 2 hrs after administration,[1],7860 ng/mL
same,Plasma concentration 8 hrs after administration,[1],173 ng/mL
same,IC50,Vero cells,≥ 250 µg/mL
same,Plasma concentration 2 hrs after administration,[2],75000 ng/mL
same,Plasma concentration 8 hrs after administration,[2],36400 ng/mL
same,25% or more inhibitory concentration,[3],0.625 µg/mL
same,IC50,[4],1.6 µg/mL
same,Plasma concentration 2 hrs after administration,[5],30900 ng/mL
same,Plasma concentration 8 hrs after administration,[5],10200 ng/mL
same,25% or more inhibitory concentration,[6],0.313 µg/mL
same,25% or more inhibitory concentration,[7],1.25 µg/mL
same,"change in appearance (lameness, dysstasia, blister formation in feet)",[8],no change in their appearance
same,"plasma viral load, in words",[8],remained at the detection limit or bellow
same,"viral load in the nasal swab, in words",[8],scarcely increased
same,clinical sign,[8]; 400 mg/kg/day,−
same,plasma viral load,[8]; 400 mg/kg/day,<0.14 TCID50/μL
same,toxic finding during the administration period,[8]; 400 mg/kg/day,no toxic finding
same,viral load in the nasal swab,[8]; 400 mg/kg/day,<0.07 TCID50/μL of swab solution
